Results: patent US20150315241A1, “Antibiotic Peptides” (priority 2007, published 2015)
Values after ≈ are worked out from the molar mass of the structure shown. Read-outs that look alike come from different tables or passages of the source. Where a SMILES comes first, the peptide text is derived from it. Where no end group is shown, it is not given here. [ ]: non-standard residue; d: D form. Hyp = O=C(O)[C@@H]1C[C@@H](O)CN1; Orn = NCCC[C@H](N)C(=O)O

Legend:
[1] = in vitro; format: in vitro ADME, mouse; conditions: 25% aqueous mouse serum, 37° C.; read-out: Half-life time
Method in brief: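 Peptide or peptidomimetic (0.5 mg/mL aqueous stock) incubated in 25% pooled mouse serum at 37 °C, sampled at 0–6 h, in duplicate. Proteins precipitated with 15% TCA; supernatants neutralized and analyzed by RP-HPLC with 0.1% TFA. Degradation products identified by MALDI-TOF/TOF-MS.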

[2] = tested on: E. coli 45849; experiment: Growth inhibition assay (MIC); format: cell-based, Escherichia coli
Method in brief: (§1)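 Read-out: A595 after 20 hrs at 37° C. Bacteria from overnight NB culture, 5×10^6 CFU/mL in 1% TSB, mixed with twofold peptide dilutions (final 125 μg/mL–60 ng/mL). Triplicate wells; water negative control.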

[3] = tested on: S. typhi S5; format: cell-based, Salmonella typhi; conditions: S5, 20 h
Method in brief: as §1

[4] = tested on: E. coli D31; format: cell-based, Escherichia coli; conditions: D31, 20 h
Method in brief: as §1

[5] = tested on: K. Pneumonia 123132; experiment: Growth inhibition assay (MIC); format: cell-based, Klebsiella pneumoniae
Method in brief: as §1

[6] = tested on: K. Pneumonia K6, ATCC 700603; experiment: Growth inhibition assay (MIC); format: cell-based, Klebsiella pneumoniae; conditions: multidrug resistant strain; 1% TSB, 37° C., 20 hrs
Method in brief: as §1

[7] = tested on: S. enterica subsp. Enterica serovar. typhi G10215 ATCC 700408; format: cell-based, Salmonella enterica; conditions: ATCC 700408, 20 h
Method in brief: as §1

[8] = tested on: R. radiobatter ATCC 15955; experiment: Growth inhibition assay (MIC); format: cell-based, Rhizobium radiobacter
Method in brief: as §1

[9] = tested on: E. coli BL 21 AI; experiment: Growth inhibition assay (MIC); format: cell-based, Escherichia coli; conditions: 1% TSB, 37° C., 20 hrs
Method in brief: (§2)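 Peptides were serially diluted two-fold in 1% TSB, giving final concentrations from 125 μg/mL down to 60 ng/mL, and mixed with overnight bacterial culture adjusted to 5×10^6 CFU/mL in 1% TSB. After 20 hrs at 37 °C, growth was read as absorbance at 595 nm, in triplicate, with sterile water as negative control.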

[10] = tested on: E. coli DC 2; experiment: Growth inhibition assay (MIC); format: cell-based, Escherichia coli; conditions: 1% TSB, 37° C., 20 hrs
Method in brief: as §2

[11] = tested on: M. luteus ATCC 10240; format: cell-based, Micrococcus luteus
Method in brief: as §2

[12] = tested on: E. coli 1103; format: cell-based, Escherichia coli
Method in brief: as §2

[13] = tested on: K. pneumonia 681; format: cell-based, Klebsiella pneumoniae
Method in brief: as §2

[14] = tested on: Mycobacterium vaccae; format: cell-based
Description: The minimal inhibition concentrations (MIC) of the apidaecin-derived peptides and peptide-derivatives were determined by a growth inhibition assay using a serial peptide dilution in sterilized round-bottom 96-well plates (polystyrene, U-bottom, Greiner Bio-One GmbH) with a final volume of 100 μL per well. The bacteria, e.g., E. coli BL21 A1, were grown in nutrient broth (NB, Carl Roth GmbH+Co. KG, Karlsruhe, Germany) at 37° C. over night. To each well of the 96-well plate, 50 μL of the overnight culture adjusted to 5×10^6 CFU/mL in 1% TSB were added. Lyophilized peptides and peptidomimetics were dissolved in 1% TSB (tryptic soy broth) or water to give a final concentration of 250 μg/mL. Fifty μL of the peptide or peptidomimetics solution were added to the first well of a row on the plate and mixed. Fifty μL of the first well containing the peptide solution were transferred to the second well, mixed and again 50 μL transferred to the next well and so on. Thereby, a two-fold dilution series was obtained starting at 250 μg/mL in the first well down to 120 ng/mL in the 12th well of a row giving a final peptide or peptidomimetics concentration from 125 μg/mL (well 1) to 60 ng/mL (well 12). Plates were incubated at 37° C. for 20 hrs. The absorbance was measured at 595 nm using a TECAN micro plate spectrophotometer (Tecan, Germany). All peptides and peptidomimetics were measured in triplicates. Sterilized water was used as a negative control.
The bacteria strains were tested: • Eschericha coli 1103, 10233, BL 21 AI, DC 2, • Klebsiella pneumoniae 681, • Micrococcus luteus ATCC 10240, • Mycobacterium vaccae • Bactillus subtillis 347.

[15] = tested on: B. subtilis 347; format: cell-based, Bactillus subtillis
Method in brief: as §2

[16] = tested on: E. coli 10233; format: cell-based, Escherichia coli
Method in brief: as §2

[17] = multidrug resistant strain, 1% TSB, 37° C., 20 hrs

| Compound | half-life at 0.061 mg/mL [1] [min] | MIC E. coli 45849 [2, 17] [µg/mL] | MIC S. typhi S5 [3] [µg/mL] | MIC E. coli D31 [4] [µg/mL] | MIC K. Pneumonia 123132 [5, 17] [µg/mL] | MIC K. Pneumonia K6, ATCC 700603 [6] [µg/mL] | MIC S. enterica subsp. Enterica serovar. typhi G10215 ATCC 700408 [7] [µg/mL] | MIC R. radiobatter ATCC 15955 [8, 17] [µg/mL] | MIC E. coli BL 21 AI [9] [µg/mL] | MIC E. coli DC 2 [10] [µg/mL] | MIC M. luteus ATCC 10240 ([11]; ATCC 10240, 20 h) [µg/mL] | MIC E. coli 1103 ([12]; 1103, 20 h) [µg/mL] | MIC K. pneumonia 681 ([13]; 20 h) [µg/mL] | MIC Mycobacterium vaccae ([14]; 20 h) [µg/mL] | MIC B. subtilis 347 ([15]; 347, 20 h) [µg/mL] | MIC E. coli 10233 ([16]; 10233, 20 h) [µg/mL] | other results |
| --- | --- | --- | --- | --- | --- | --- | --- | --- | --- | --- | --- | --- | --- | --- | --- | --- | --- |
| CC[C@H](C)[C@H](NC(=O)[C@H](Cc1ccc(O)cc1)NC(=O)[C@@H](NC(=O)[C@@H]1CCCN1C(=O)[C@H](CCCNC(=N)N)NC(=O)[C@H](CC(N)=O)NC(=O)[C@H](CC(N)=O)NC(=O)[C@H](CCCN)NC(C)=O)C(C)C)C(=O)N1CCC[C@H]1C(=O)N[C@@H](CCC(N)=O)C(=O)N1CCC[C@H]1C(=O)N[C@@H](CCCNC(=N)N)C(=O)N1CCC[C@H]1C(=O)N1CCC[C@H]1C(=O)N[C@@H](Cc1c[nH]cn1)C(=O)N1CCC[C@H]1C(=O)N[C@@H](CCCNC(=N)N)C(=O)N[C@@H](CC(C)C)C(N)=O [compound 7] (Ac-[Orn]NNRPVYIPQPRPPHPRL-NH2) | 15 | 1 (≈ 0.453 µM) | 2 (≈ 0.906 µM) | 4 to 8 | 16 (≈ 7.25 µM) | 64 (≈ 29 µM) | 0.5 to 1 | <0.16 | 0.49 (≈ 0.222 µM) | 3.9 (≈ 1.77 µM) | 3.91 (≈ 1.77 µM) | 1.95 (≈ 0.884 µM) | 1.95 (≈ 0.884 µM) | 125 (≈ 56.6 µM) | >125 | – | – |
| CC[C@H](C)[C@H](NC(=O)[C@H](Cc1ccc(O)cc1)NC(=O)[C@@H](NC(=O)[C@@H]1CCCN1C(=O)[C@H](CCCNC(=N)N)NC(=O)[C@H](CC(N)=O)NC(=O)[C@H](CC(N)=O)NC(=O)[C@@H](N)CCCN)C(C)C)C(=O)N1CCC[C@H]1C(=O)N[C@@H](CCC(N)=O)C(=O)N1CCC[C@H]1C(=O)N[C@@H](CCCNC(=N)N)C(=O)N1CCC[C@H]1C(=O)N1CCC[C@H]1C(=O)N[C@@H](Cc1c[nH]cn1)C(=O)N1CCC[C@H]1C(=O)N[C@@H](CCCNC(=N)N)C(=O)N[C@@H](CC(C)C)C(N)=O [compound 8] (H-[Orn]NNRPVYIPQPRPPHPRL-NH2) | 30 | <0.25 | <0.5 | 2 (≈ 0.924 µM) | 1 (≈ 0.462 µM) | 16 (≈ 7.39 µM) | <0.25 | <0.16 | 0.24 (≈ 0.111 µM) | 0.98 (≈ 0.453 µM) | 7.84 (≈ 3.62 µM) | – | 1.95 (≈ 0.901 µM) | 125 (≈ 57.7 µM) | >125 | – | – |
| CC[C@H](C)[C@H](NC(=O)[C@H](Cc1ccc(O)cc1)NC(=O)[C@@H](NC(=O)[C@@H]1CCCN1C(=O)[C@H](CCCNC(=N)N)NC(=O)[C@H](CC(N)=O)NC(=O)[C@H](CC(N)=O)NC(=O)CN)C(C)C)C(=O)N1CCC[C@H]1C(=O)N[C@@H](CCCN)C(=O)N1C[C@H](O)C[C@H]1C(=O)N[C@@H](CCCNC(=N)N)C(=O)N1CCC[C@H]1C(=O)N1CCC[C@H]1C(=O)N[C@@H](Cc1c[nH]cn1)C(=O)N1CCC[C@H]1C(=O)N[C@@H](CCCNC(=N)N)C(=O)N[C@@H](CC(C)C)C(N)=O [compound 11] (H-GNNRPVYIP[Orn][Hyp]RPPHPRL-NH2) | – | – | <0.5 | 8 (≈ 3.79 µM) | – | 8 (≈ 3.79 µM) | <0.25 | – | 0.49 (≈ 0.232 µM) | 0.98 (≈ 0.465 µM) | – | – | – | – | – | – | MIC E. coli 45849 ([2]; 45849, 20 h): 1 µg/mL (≈ 0.474 µM); MIC K. Pneumonia 123132 ([5]; 20 h): 8 µg/mL (≈ 3.79 µM); MIC R. radiobatter ATCC 15955 ([8]; ATCC 15955, 20 h): <0.16 µg/mL; MIC M. luteus ATCC 10240 ([11]; 1% TSB, 37° C., 20 hrs): 1.95 µg/mL (≈ 0.924 µM); MIC E. coli 10233 ([16]; 1% TSB, 37° C., 20 hrs): 3.91 µg/mL (≈ 1.85 µM); MIC E. coli 1103 ([12]; 1% TSB, 37° C., 20 hrs): 3.9 µg/mL (≈ 1.85 µM); MIC K. pneumonia 681 ([13]; 1% TSB, 37° C., 20 hrs): 1.95 µg/mL (≈ 0.924 µM); MIC Mycobacterium vaccae ([14]; 1% TSB, 37° C., 20 hrs): 125 µg/mL (≈ 59.3 µM); MIC B. subtilis 347 ([15]; 1% TSB, 37° C., 20 hrs): 125 µg/mL (≈ 59.3 µM) |
| CC[C@H](C)[C@H](NC(=O)[C@H](Cc1ccc(O)cc1)NC(=O)[C@@H](NC(=O)[C@@H]1CCCN1C(=O)[C@H](CCCNC(=N)N)NC(=O)[C@H](CC(N)=O)NC(=O)[C@H](CC(N)=O)NC(=O)CN)C(C)C)C(=O)N1CCC[C@H]1C(=O)N[C@@H](CCCNC(=N)N)C(=O)N1C[C@H](O)C[C@H]1C(=O)N[C@@H](CCCNC(=N)N)C(=O)N1CCC[C@H]1C(=O)N1CCC[C@H]1C(=O)N[C@@H](Cc1c[nH]cn1)C(=O)N1CCC[C@H]1C(=O)N[C@@H](CCCNC(=N)N)C(=O)N[C@@H](CC(C)C)C(N)=O [compound 20] (H-GNNRPVYIPR[Hyp]RPPHPRL-NH2) | – | 1 (≈ 0.465 µM) | <0.5 | 32 (≈ 14.9 µM) | 4 (≈ 1.86 µM) | 8 (≈ 3.72 µM) | – | 0.33 (≈ 0.153 µM) | 0.49 (≈ 0.228 µM) | 1.95 to 3.91 | 1.95 (≈ 0.906 µM) | 3.9 (≈ 1.81 µM) | 3.9 (≈ 1.81 µM) | 125 (≈ 58.1 µM) | >125 | – | – |
| CC[C@H](C)[C@H](NC(=O)[C@H](Cc1ccc(O)cc1)NC(=O)[C@@H](NC(=O)[C@@H]1CCCN1C(=O)[C@H](CCCNC(=N)N)NC(=O)[C@H](CC(N)=O)NC(=O)[C@H](CC(N)=O)NC(=O)[C@@H](N)CCCN)C(C)C)C(=O)N1CCC[C@H]1C(=O)N[C@@H](CCCNC(=N)N)C(=O)N1CCC[C@H]1C(=O)N[C@@H](CCCNC(=N)N)C(=O)N1CCC[C@H]1C(=O)N1CCC[C@H]1C(=O)N[C@@H](Cc1c[nH]cn1)C(=O)N1CCC[C@H]1C(=O)N[C@@H](CCCNC(=N)N)C(=O)N[C@@H](CC(C)C)C(N)=O [compound 38] (H-[Orn]NNRPVYIPRPRPPHPRL-NH2) | – | 0.5 (≈ 0.228 µM) | <0.5 | 2 (≈ 0.912 µM) | 2 (≈ 0.912 µM) | 4 (≈ 1.82 µM) | 2 (≈ 0.912 µM) | 1.3 (≈ 0.593 µM) | 1.95 (≈ 0.889 µM) | 0.98 (≈ 0.447 µM) | 1.95 (≈ 0.889 µM) | 3.91 (≈ 1.78 µM) | 1.95 (≈ 0.889 µM) | 125 (≈ 57 µM) | 62.5 (≈ 28.5 µM) | 1.95 (≈ 0.889 µM) | – |
| GNNRPVYIPQPRPPHPRI [compound 1] | – | – | – | 64 | – | 64 | 2 | – | 0.98 | 3.91 | 31.25 | 1.95 | 15.62 | >125 | >125 | 1.95 | – |
